In patent US20190359547A1, “METHOD OF RETARDING AN ETHYLENE RESPONSE” (CURTIN UNIVERSITY OF TECHNOLOGY, priority 2016, published 2019):

Assays:
[1] = system: 'Tegan Blue' Japanese plum fruit; assay: climacteric ethylene level in 'Tegan Blue' plum fruit after fumigation; type: in vivo; details: for level of climacteric ethylene, suppressed, in comparison to the solely ethylene treated fruit: 'Tegan Blue' plum, ethylene only 4.73 μmol kg^-1 h^-1
[2] = system: 'Tegan Blue' Japanese plum fruit; assay: climacteric respiration (CO2 production) in 'Tegan Blue' plum fruit; type: in vivo; details: ethylene only 0.72 mmol CO2 kg^-1 h^-1
solubility in water = type: physicochemical
WX73 wax flower = assay: flower/bud abscission in WX73 wax flower; type: in vivo, Wax flower (Chamelaucium Desf.)
Method: (§1) To evaluate the effects of BC and NC on flower abscission, flowering stems of Wax flower (Chamelaucium Desf.) (WX17, WX73 and WX107) were collected from mature bushes grown at Department of Agriculture and Food Western Australia (DAFWA), Perth (31° 58′ 55″ S/115° 51′ 47″ E). Collected stems were immediately placed upright in buckets with water and recut at 20-25 cm in length (from the cut end to the most extreme opened-flowers). The flower stalks were treated similarly as the fruits with BC (0-100 nLL^−1) or NC (0-100 nLL^−1) and ethylene. The experiments were laid out by following CRD design, having five replications for each treatment and five stalks in each replication. During the treatment period, the flower stalks were placed in small plastic bottles with distilled water. A cone made of nylon mesh was placed at the base of the stalks to check the number of abscised flowers. […]
(§2) The experimental data were analysed following one-way analysis of variance (ANOVA) by using Genstat 13 (release 13.1; Lawes Agricultural Trust, Rothamsted Experimental Station, Harpenden, UK). The effects of various treatments and their interactions were assessed and least significant differences (Fisher's LSD) were calculated by F test at 5% level of significance.

[3] = stability at room temperature; type: physicochemical
WX17 wax flower = assay: flower/bud abscission in WX17 wax flower; type: in vivo, Wax flower (Chamelaucium Desf.); details: BC 100 nLL^-1 fumigation followed by ethylene exposure (10 μLL^-1)
Method: as §1, §2

[4] = system: 'Arctic Pride' nectarine fruit; assay: climacteric ethylene level in 'Arctic Pride' nectarine fruit after fumigation; type: in vivo; details: BC 50 nLL^-1 + ethylene, ethylene only 0.414 μmol kg^-1 h^-1
[5] = system: 'Arctic Pride' nectarine fruit; assay: climacteric respiration (CO2 production) in 'Arctic Pride' nectarine fruit; type: in vivo; details: ethylene only 0.31 mmol CO2 kg^-1 h^-1

| SMILES | level of climacteric ethylene, suppressed, in comparison to the solely ethylene treated fruit ([1]; 1000 nLL^-1 1-MCP fumigation 18 hr + ethylene (10 μL L^-1, 24 hr)) [fold] | climacteric respiration, suppressed, than the solely ethylene treated fruit ([2]; 1-MCP 1000 μLL^-1 + ethylene) [fold] | solubility in water (solubility in water) | rate of flower/bud abscission (WX73 wax flower; 50 nL L^-1 BC followed by ethylene treatment) [%] | rate of flower/bud abscission (WX73 wax flower; 100 nL L^-1 BC followed by ethylene treatment) [%] | stability [3] | rate of flower/bud abscission (WX17 wax flower) [%] | level of climacteric ethylene, suppressed, in comparison to the solely ethylene treated fruit ([1]; 100 nLL^-1 BC fumigation 18 hr + ethylene (10 μL L^-1, 24 hr)) [fold] | effect on climacteric ethylene and respiration compared with 1-MCP (1000 nL L^-1) ([1]; BC 100 nL L^-1 versus 1-MCP 1000 nL L^-1, 'Tegan Blue' and 'Fortune' plum, 'Arctic Pride' nectarine) | levels of ethylene, suppressed, than the solely ethylene treated fruit [4] [fold] | climacteric respiration, suppressed, than the solely ethylene treated fruit ([2]; BC 100 nLL^-1 + ethylene) [fold] | suppression of respiration climacteric in comparison to the solely ethylene treated fruit ([5]; BC 50 nLL^-1 + ethylene) [fold] | suppression of respiration climacteric in comparison to the solely ethylene treated fruit ([5]; BC 50 nLL^-1 without ethylene) [fold] |
| --- | --- | --- | --- | --- | --- | --- | --- | --- | --- | --- | --- | --- | --- |
| CC1=CC1 [1-MCP, 1-Methylcyclopropene, reference compound] | 0.70 | 0.77 | – | – | – | – | – | – | – | – | – | – | – |
| c1ccc2c(c1)C2 [BC, benzocyclopropene] | – | – | only partially soluble in water | 22.43 | 28.40 | stable at room temperature for several months | 6.05 | 0.80 | non-significant differences | 0.63 | 0.83 | 0.77 | 0.71 |
